Results: PubChem BioAssay (NCI)
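Cultured in 96-well plates, cells were exposed to test compound for 48 hours across five concentrations. GI50 = concentration required for 50% inhibition of growth. TGI denotes the concentration required for complete inhibition of growth.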

Experiments:
Test in all cases: growth of human tumour cells (NCI), 48 h
SF-268 CNS = test system: SF-268 CNS
SF-539 CNS = test system: SF-539 CNS
HOP-92 NSCLC = test system: HOP-92 NSCLC
TK-10 renal = test system: TK-10 renal
U251 CNS = test system: U251 CNS
BT-549 breast = test system: BT-549 breast
RPMI-8226 leukemia = test system: RPMI-8226 leukemia
UACC-257 melanoma = test system: UACC-257 melanoma
MCF7 breast = test system: MCF7 breast
SK-MEL-28 melanoma = test system: SK-MEL-28 melanoma

Structure (SMILES) | GI50 (SF-268 CNS) [µM] | TGI (SF-268 CNS) [µM] | GI50 (SF-539 CNS) [µM] | TGI (SF-539 CNS) [µM] | GI50 (HOP-92 NSCLC) [µM] | TGI (HOP-92 NSCLC) [µM] | GI50 (TK-10 renal) [µM] | TGI (TK-10 renal) [µM] | GI50 (U251 CNS) [µM] | TGI (U251 CNS) [µM] | GI50 (BT-549 breast) [µM] | TGI (BT-549 breast) [µM] | TGI (RPMI-8226 leukemia) [µM] | TGI (UACC-257 melanoma) [µM] | GI50 (MCF7 breast) [µM] | TGI (MCF7 breast) [µM] | GI50 (RPMI-8226 leukemia) [µM] | GI50 (UACC-257 melanoma) [µM] | GI50 (SK-MEL-28 melanoma) [µM] | TGI (SK-MEL-28 melanoma) [µM]
Nc1ccc(-c2cccs2)cc1NC(=O)c1ccc(CCCC(=O)Nc2ccc(C3CC3N)cc2)cc1 (centres undefined) | 2.33 | 5.47 | 2.42 | 7.94 | 11 | > 100 | 2.44 | 39.2 | 1.6 | 3.16 | 2.69 | > 100 | – | – | – | – | – | – | – | –
Cn1c(N)nc(=O)c2c1N(C1OC(CO)C(O)C1O)CN2Cc1ccccc1 (centres undefined) | – | > 100 | – | > 100 | – | > 100 | – | > 100 | – | > 100 | – | – | > 100 | > 100 | – | – | – | – | – | –
O=C(Nc1cccc(Cl)c1)c1cccc(NC2=C(Cl)C(=O)N(Cc3ccccc3)C2=O)c1 | 25.5 | 94.4 | 81.8 | > 100 | 16.1 | > 100 | – | – | 43.1 | > 100 | 36.9 | > 100 | 53.3 | > 100 | 25.6 | 83.7 | 7.58 | 72.5 | > 100 | > 100
CC(=O)O[C@@]1(C)[C@@H](C)C(=O)O[C@@H]2CCN3CC=C(COC(=O)[C@]1(C)O)[C@H]23 | – | > 100 | – | > 100 | – | > 100 | – | > 100 | – | > 100 | – | – | > 100 | > 100 | – | – | – | – | – | > 100
CC(=O)[CH-]C(=O)c1ccccc1.CC(=O)[CH-]C(=O)c1ccccc1.Cc1cc([O-])ccc1Cl.Cc1cc([O-])ccc1Cl.[Ti+4] | 19.5 | 74.8 | 25.9 | 72.9 | – | – | – | – | 22.1 | > 100 | – | – | 55.3 | 92.4 | – | – | 19.2 | 27.1 | 34.7 | > 100
CSc1snc2sc3c(Cl)nnnc3c12 | – | 33.2 | – | 32.1 | – | – | – | 30.9 | – | 28.6 | – | – | 56.2 | 26.8 | – | – | – | – | – | 23.2
O=C(O/N=C1/CCC/C1=C\c1ccccc1)c1ccc(Cl)c(Cl)c1 | – | > 100 | – | > 100 | – | > 100 | – | > 100 | – | > 100 | – | – | > 100 | > 100 | – | – | – | – | – | > 100
C=C1CC2CC(O)CC(C1)C2 (centres undefined) | – | > 100 | – | > 100 | – | > 100 | – | > 100 | – | > 100 | – | – | > 100 | > 100 | – | – | – | – | – | > 100
O=C1C2C(C(=O)N1c1ccccc1)C1([N+](=O)[O-])C=C3c4ccccc4N(C(=O)c4ccccc4)C32C2C(=O)N(c3ccccc3)C(=O)C21 (centres undefined) | – | > 100 | – | – | – | > 100 | – | > 100 | – | > 100 | – | – | – | > 100 | – | – | – | – | – | > 100
O=C(NO)[C@@H](Cc1ccccc1)NS(=O)(=O)c1ccc(-c2ccccc2)cc1 | 11.6 | > 25 | 9.56 | > 25 | 4.7 | 20.9 | 19.1 | > 25 | 21.3 | > 25 | > 25 | > 25 | – | > 25 | > 25 | > 25 | – | > 25 | > 25 | > 25
